This passage reports IC50 results from ChEMBL document CHEMBL1145934, “Novel sst(4)-selective somatostatin (SRIF) agonists. 2. Analogues with beta-methyl-3-(2-naphthyl)alanine substitutions at position 8” (J Med Chem, 2003).

The IC50 is the concentration that gives 50% inhibition.

Assay [1] concerns the target Somatostatin receptor type 2 (Homo sapiens, UniProt P30874). Put plainly: Binding affinity at human Somatostatin receptor type 2 by [125I][Leu8,D-Trp22,Tyr25]SRIF-28 displacement.
Assay [2] deals with Somatostatin receptor type 3 (Homo sapiens, UniProt P32745). Put plainly: Binding affinity at human Somatostatin receptor type 3 by [125I][Leu8,D-Trp22,Tyr25]SRIF-28 displacement.
For assay [3], the target named is Somatostatin receptor type 4 (Homo sapiens, UniProt P31391). The experiment in a line: Binding affinity at human Somatostatin receptor type 4 by [125I][Leu8,D-Trp22,Tyr25]SRIF-28 displacement.
In assay [4] the target is Somatostatin receptor type 1 (Homo sapiens, UniProt P30872). Put plainly: Binding affinity at human Somatostatin receptor type 1 by [125I][Leu8,D-Trp22,Tyr25]SRIF-28 displacement.
Assay [5] deals with Somatostatin receptor type 5 (Homo sapiens, UniProt P35346). Put plainly: Binding affinity at human Somatostatin receptor type 5 by [125I][Leu8,D-Trp22,Tyr25]SRIF-28 displacement.
Chain of Somatostatin receptor type 5 (P35346 whole entry): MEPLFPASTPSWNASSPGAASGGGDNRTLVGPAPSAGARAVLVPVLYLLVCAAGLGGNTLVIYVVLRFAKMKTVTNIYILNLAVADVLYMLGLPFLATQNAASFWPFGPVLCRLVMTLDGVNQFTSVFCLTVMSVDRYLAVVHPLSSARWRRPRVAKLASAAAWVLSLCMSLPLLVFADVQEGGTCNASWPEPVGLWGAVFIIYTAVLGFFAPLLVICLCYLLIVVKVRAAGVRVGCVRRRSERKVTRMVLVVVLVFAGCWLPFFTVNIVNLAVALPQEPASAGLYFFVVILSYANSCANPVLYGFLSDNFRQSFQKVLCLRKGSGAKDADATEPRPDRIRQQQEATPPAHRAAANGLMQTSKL

Chain of Somatostatin receptor type 3 (P32745 whole entry): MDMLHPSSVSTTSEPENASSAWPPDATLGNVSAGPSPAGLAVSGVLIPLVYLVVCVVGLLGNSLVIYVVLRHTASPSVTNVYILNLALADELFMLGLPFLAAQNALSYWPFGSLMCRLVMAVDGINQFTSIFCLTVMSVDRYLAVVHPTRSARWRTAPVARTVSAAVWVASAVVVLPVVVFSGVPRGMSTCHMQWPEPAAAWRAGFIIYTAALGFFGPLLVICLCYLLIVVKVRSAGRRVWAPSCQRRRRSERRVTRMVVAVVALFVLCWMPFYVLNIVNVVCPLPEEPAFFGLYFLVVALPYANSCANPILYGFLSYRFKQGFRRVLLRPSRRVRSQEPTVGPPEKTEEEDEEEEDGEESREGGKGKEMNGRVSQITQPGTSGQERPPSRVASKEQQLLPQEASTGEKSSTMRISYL
Chain of Somatostatin receptor type 1 (P30872 whole entry): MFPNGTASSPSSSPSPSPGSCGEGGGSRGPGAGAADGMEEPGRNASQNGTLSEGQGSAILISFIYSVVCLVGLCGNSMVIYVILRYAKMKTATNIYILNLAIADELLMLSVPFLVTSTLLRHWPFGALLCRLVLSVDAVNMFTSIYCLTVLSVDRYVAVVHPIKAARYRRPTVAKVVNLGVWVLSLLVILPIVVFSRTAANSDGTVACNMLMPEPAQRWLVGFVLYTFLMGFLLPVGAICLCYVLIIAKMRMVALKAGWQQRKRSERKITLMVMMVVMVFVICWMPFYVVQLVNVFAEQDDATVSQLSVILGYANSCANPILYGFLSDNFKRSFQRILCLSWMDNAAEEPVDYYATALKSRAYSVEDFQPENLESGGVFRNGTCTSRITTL
Chain of Somatostatin receptor type 4 (P31391 whole entry): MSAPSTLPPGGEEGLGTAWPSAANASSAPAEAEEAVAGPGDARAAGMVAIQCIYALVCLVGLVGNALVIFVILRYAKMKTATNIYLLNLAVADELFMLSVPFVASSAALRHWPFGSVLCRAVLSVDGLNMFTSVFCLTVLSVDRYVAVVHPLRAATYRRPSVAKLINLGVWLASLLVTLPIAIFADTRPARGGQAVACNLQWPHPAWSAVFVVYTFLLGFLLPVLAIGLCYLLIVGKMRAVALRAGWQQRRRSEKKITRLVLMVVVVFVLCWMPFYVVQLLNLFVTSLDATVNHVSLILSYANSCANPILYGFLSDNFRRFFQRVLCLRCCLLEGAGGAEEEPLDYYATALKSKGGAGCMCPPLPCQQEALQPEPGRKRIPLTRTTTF
Chain of Somatostatin receptor type 2 (P30874 whole entry): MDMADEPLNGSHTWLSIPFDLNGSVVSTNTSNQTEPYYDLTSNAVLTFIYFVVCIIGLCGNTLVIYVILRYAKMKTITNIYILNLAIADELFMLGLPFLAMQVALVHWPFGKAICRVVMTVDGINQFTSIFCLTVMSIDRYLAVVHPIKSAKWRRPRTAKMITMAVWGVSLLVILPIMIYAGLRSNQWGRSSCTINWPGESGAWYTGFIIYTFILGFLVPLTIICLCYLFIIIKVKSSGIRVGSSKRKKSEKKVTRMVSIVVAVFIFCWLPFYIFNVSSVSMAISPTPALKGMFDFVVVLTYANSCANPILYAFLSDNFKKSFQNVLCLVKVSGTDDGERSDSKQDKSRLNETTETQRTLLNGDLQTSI

`COC(=O)[C@H](CCCN=C(N)N)NC(=O)CCCc1c(-c2ccccc2)[nH]c2c(F)cc(F)cc12`: the IC50 in assay [1] and in assay [2] was > 10000 nM in each case.
With `C[C@@H](O)[C@@H]1NC(=O)[C@H](CCCCN)NC(=O)[C@H]([C@@H](C)c2ccc3ccccc3c2)NC(=O)[C@H](Cc2ccc(O)cc2)NC(=O)[C@H](Cc2ccccc2)NC(=O)[C@@H](N)CSSC[C@@H](C(=O)O)NC(=O)[C@H](Cc2ccccc2)NC1=O`, the IC50 in assay [3] was 2.1 nM; in assay [1], 110 nM; in assay [2], 600 nM; in assay [4], > 1000 nM; in assay [5], 147 nM.
As for `C[C@H](c1ccc2ccccc2c1)[C@@H]1NC(=O)[C@H](Cc2ccc(O)cc2)NC(=O)[C@H](Cc2ccccc2)NC(=O)[C@@H](N)CSSC[C@@H](C(=O)O)NC(=O)[C@H](Cc2ccccc2)NC(=O)[C@H]([C@@H](C)O)NC(=O)[C@H](CCCCN)NC1=O`, the IC50 was found to be 2.2 nM in assay [3]; 30 nM in assay [1]; 18 nM in assay [2]; 410 nM in assay [4]; 17.5 nM in assay [5].
Regarding `C[C@H](c1ccc2ccccc2c1)[C@@H]1NC(=O)[C@H](Cc2ccc(N)cc2)NC(=O)[C@H](Cc2ccccc2)NC(=O)[C@H](NC(=O)[C@@H](N)Cc2ccc(O)cc2)CSSC[C@@H](C(=O)O)NC(=O)[C@H](Cc2ccccc2)NC(=O)[C@H]([C@@H](C)O)NC(=O)[C@H](CCCCN)NC1=O`, the IC50 is 61 nM in assay [3]; 474 nM in assay [1]; 595 nM in assay [2]; > 1000 nM in assay [4]; > 1000 nM in assay [5].
For the compound `C[C@@H](O)[C@H]1NC(=O)[C@H](CCCCN)NC(=O)[C@@H]([C@@H](C)c2ccc3ccccc3c2)NC(=O)[C@H](Cc2ccc(N)cc2)NC(=O)[C@@H](Cc2ccccc2)NC(=O)[C@H](N)CSSC[C@@H](C(=O)O)NC(=O)[C@H](Cc2ccccc2)NC1=O`, the IC50 in assay [3] is 6.9 nM; in assay [1] it was 575 nM; in assay [2], > 1000 nM; in assay [4], > 10000 nM; in assay [5], > 10000 nM.
As to `C[C@H](c1ccc2ccccc2c1)[C@@H]1NC(=O)[C@H](Cc2ccc(N)cc2)NC(=O)[C@@H](Cc2ccccc2)NC(=O)[C@H](N)CSSC[C@@H](C(=O)O)NC(=O)[C@H](Cc2ccccc2)NC(=O)[C@@H]([C@@H](C)O)NC(=O)[C@H](CCCCN)NC1=O`, the IC50 in assay [3] is 8.7 nM; in assay [1], 102 nM; in assay [2], 186 nM; in assay [4], > 1000 nM; in assay [5] it was 101 nM.
Consider `C[C@H](c1ccc2ccccc2c1)[C@H]1NC(=O)[C@H](Cc2ccc(O)cc2)NC(=O)[C@@H](Cc2ccccc2)NC(=O)[C@H](N)CSSC[C@@H](C(=O)O)NC(=O)[C@H](Cc2ccccc2)NC(=O)[C@@H]([C@@H](C)O)NC(=O)[C@H](CCCCN)NC1=O`, for which the IC50 is > 1000 nM in assay [3]; > 10000 nM in assay [1]; > 1000 nM in assay [2]; > 10000 nM in assay [4]; > 10000 nM in assay [5].
For the compound `C[C@@H](O)[C@H]1NC(=O)[C@H](CCCCN)NC(=O)[C@@H]([C@@H](C)c2ccc3ccccc3c2)NC(=O)[C@H](Cc2ccccc2)NC(=O)[C@@H](Cc2ccccc2)NC(=O)[C@H](N)CSSC[C@@H](C(=O)O)NC(=O)[C@H](Cc2ccc(O)cc2)NC1=O`, the IC50 in assay [3] was 11.8 nM; in assay [1], 357 nM; in assay [2] it was 325 nM; in assay [4], > 1000 nM; in assay [5], 700 nM.
Take `C[C@@H](O)[C@@H]1NC(=O)[C@H](CCCCN)NC(=O)[C@@H]([C@@H](C)c2ccc3ccccc3c2)NC(=O)[C@H](Cc2ccc(O)cc2)NC(=O)[C@H](Cc2ccccc2)NC(=O)[C@@H](N)CSSC[C@@H](C(=O)O)NC(=O)[C@H](Cc2ccccc2)NC1=O`: the concentration for half-maximal inhibition (IC50) in assay [3] is 105 nM; in assay [1] it was > 1000 nM; in assay [2] it was > 10000 nM; in assay [4] it was > 1000 nM; in assay [5] it was > 1000 nM.
Turning to `C[C@@H](O)[C@@H]1NC(=O)[C@H](CCCCN)NC(=O)[C@@H]([C@@H](C)c2ccc3ccccc3c2)NC(=O)[C@H](Cc2ccc(N)cc2)NC(=O)[C@H](Cc2ccccc2)NC(=O)[C@H](NC(=O)[C@@H](N)Cc2ccc(O)cc2)CSSC[C@@H](C(=O)O)NC(=O)[C@H](Cc2ccccc2)NC1=O`, the IC50 is 9.8 nM in assay [3]; 204 nM in assay [1]; 171 nM in assay [2]; > 1000 nM in assay [4]; 127 nM in assay [5].
In assay [3], `C[C@@H](O)[C@@H]1NC(=O)[C@H](CCCCN)NC(=O)[C@@H]([C@@H](C)c2ccc3ccccc3c2)NC(=O)[C@H](Cc2ccc(O)cc2)NC(=O)[C@H](Cc2ccccc2)NC(=O)[C@H](N)CSSC[C@@H](C(=O)O)NC(=O)[C@H](Cc2ccccc2)NC1=O` gave an IC50 of 0.53 nM.
As for `C[C@H](c1ccc2ccccc2c1)[C@@H]1NC(=O)[C@H](Cc2ccccc2)NC(=O)[C@@H](Cc2ccccc2)NC(=O)[C@H](N)CSSC[C@@H](C(=O)O)NC(=O)[C@H](Cc2ccc(O)cc2)NC(=O)[C@@H]([C@@H](C)O)NC(=O)[C@H](CCCCN)NC1=O`, the IC50 in assay [3] is 9.2 nM; in assay [1], 16 nM; in assay [2], 12 nM; in assay [4], > 1000 nM; in assay [5] it was 47 nM.
